Results: PubChem BioAssay (NCI)
Several values for one entry are separate records, joined by “and”; a condition that tells them apart may be missing. Identical values can stand only once.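 In this assay, cells in 96-well plates receive the compound at five concentrations for 48 hours. Endpoints are linearly interpolated between the surrounding concentrations. Abbreviation: GI50, concentration required for 50% inhibition of growth. TGI marks complete inhibition of growth.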

What was measured:
Assay in all cases: NCI tumour cell line growth inhibition, 48 h
[1] = tested on: 786-0 renal
[2] = tested on: BT-549 breast
[3] = tested on: CAKI-1 renal
[4] = tested on: COLO 205 colon
[5] = tested on: EKVX NSCLC
[6] = tested on: HCC-2998 colon
[7] = tested on: HOP-18 NSCLC
[8] = tested on: HS 578T breast
[9] = tested on: HT29 colon
[10] = tested on: KM20L2 colon
[11] = tested on: OVCAR-4 ovarian
[12] = tested on: OVCAR-5 ovarian
[13] = tested on: SK-MEL-28 melanoma
[14] = tested on: SK-OV-3 ovarian
[15] = tested on: SNB-78 CNS
[16] = tested on: T-47D breast
[17] = tested on: TK-10 renal
[18] = tested on: UO-31 renal
[19] = tested on: A498 renal
[20] = tested on: A549 NSCLC
[21] = tested on: ACHN renal
[22] = tested on: CCRF-CEM leukemia
[23] = tested on: DLD-1 colon
[24] = tested on: DMS 114 small cell lung
[25] = tested on: DMS 273 small cell lung
[26] = tested on: HCT-116 colon
[27] = tested on: HCT-15 colon
[28] = tested on: HL-60(TB) leukemia
[29] = tested on: HOP-62 NSCLC
[30] = tested on: HOP-92 NSCLC
[31] = tested on: IGROV1 ovarian
[32] = tested on: K-562 leukemia
[33] = tested on: KM12 colon
[34] = tested on: LOX IMVI melanoma
[35] = tested on: LXFL 529 NSCLC
[36] = tested on: M14 melanoma
[37] = tested on: M19-MEL melanoma
[38] = tested on: MALME-3M melanoma
[39] = tested on: MOLT-4 leukemia
[40] = tested on: NCI-H226 lung
[41] = tested on: NCI-H23 lung
[42] = tested on: NCI-H460 lung
[43] = tested on: NCI-H522 lung
[44] = tested on: OVCAR-3 ovarian
[45] = tested on: OVCAR-8 ovarian
[46] = tested on: RPMI-8226 leukemia
[47] = tested on: RXF 393 renal
[48] = tested on: SF-268 CNS
[49] = tested on: SF-295 CNS
[50] = tested on: SF-539 CNS
[51] = tested on: SK-MEL-2 melanoma
[52] = tested on: SK-MEL-5 melanoma
[53] = tested on: SN12C renal
[54] = tested on: SNB-19 CNS
[55] = tested on: SNB-75 CNS
[56] = tested on: SR leukemia
[57] = tested on: SW-620 colon
[58] = tested on: U251 CNS
[59] = tested on: UACC-257 melanoma
[60] = tested on: UACC-62 melanoma
[61] = tested on: XF 498 CNS
[62] = tested on: DU-145 prostate
[63] = tested on: MCF7 breast
[64] = tested on: MDA-MB-231 breast
[65] = tested on: MDA-MB-435
[66] = tested on: MDA-N
[67] = tested on: NCI/ADR-RES ovarian
[68] = tested on: PC-3 prostate

With `COc1ccc(/C=C\c2cc(OC)c(OC)c(OC)c2)cc1O` the TGI [1] was 25.5 µM, the TGI [2] was over 100 µM and the TGI [3] was 13.9 µM and > 59.5 µM. For the same compound, the GI50 [4] was 2.49 µM, the TGI [4] was 43.3 µM and 22.1 µM and the TGI [5] was 82.1 µM. For the same compound, the TGI [6] was 1.22 µM and 2.38 µM, the TGI [7] was over 100 µM and the TGI [8] was 8.09 µM. For the same compound, the GI50 [9] was 0.664 µM, the TGI [9] was 9.28 µM and > 44.9 µM and the TGI [10] was 8.28 µM and 16.2 µM. For the same compound, the GI50 [11] was 6.58 µM, the GI50 [12] was 4.27 µM and the TGI [12] was 78.6 µM and > 91.4 µM. The GI50 [13] was 3.16 µM, the TGI [14] was under 0.031 µM and the GI50 [15] was 0.00409 µM and < 0.001 µM. For the same compound, the TGI [15] was over 100 µM, the GI50 [16] was 48 µM and the TGI [16] was 91.2 µM. The GI50 [17] was 2.63 µM and 0.567 µM, the TGI [17] was 4.16 µM and the TGI [18] was over 88.6 µM.

With `OCCN1CCN(CC/C=C2/c3ccccc3Sc3ccc(Cl)cc32)CC1` the GI50 [1] was 13.2 µM, the TGI [1] was 26.7 µM and the TGI [19] was 28.1 µM. The TGI [20] was 29.9 µM, the TGI [21] was 29.7 µM and the TGI [3] was 24.4 µM. It also gave a TGI [22] of 23.6 µM, a TGI [4] of 23.3 µM and a TGI [23] of 26.4 µM. For the same compound, the TGI [24] was 30.5 µM, the TGI [25] was 18.9 µM and the TGI [5] was 31.3 µM. For the same compound, the TGI [6] was 23.5 µM, the TGI [26] was 21.7 µM and the TGI [27] was 26.2 µM. It also gave a TGI [28] of 16 µM, a TGI [7] of 24 µM and a TGI [29] of 29.7 µM. The TGI [30] was 20.9 µM, the TGI [9] was 6.9 µM and the TGI [31] was 28.6 µM. The TGI [32] was 8.65 µM, the TGI [33] was 23.2 µM and the TGI [10] was 5.4 µM. It also gave a TGI [34] of 21.8 µM, a TGI [35] of 17.9 µM and a TGI [36] of 6.24 µM. For the same compound, the TGI [37] was 4.09 µM, the TGI [38] was 13.1 µM and the TGI [39] was 26.8 µM. The TGI [40] was 28.2 µM, the TGI [41] was 29.2 µM and the TGI [42] was 16.3 µM. For the same compound, the TGI [43] was 30.1 µM, the TGI [44] was 27.9 µM and the TGI [11] was 31.5 µM. For the same compound, the TGI [12] was 30.9 µM, the GI50 [45] was 15.2 µM and the TGI [45] was 29.1 µM. It also gave a TGI [46] of 31.2 µM, a TGI [47] of 26.5 µM and a TGI [48] of 28.3 µM. The TGI [49] was 32.6 µM, the TGI [50] was 25.7 µM and the TGI [51] was 28.3 µM. For the same compound, the TGI [13] was 3.38 µM, the TGI [52] was 16.5 µM and the TGI [14] was 29.3 µM. For the same compound, the TGI [53] was 26 µM, the TGI [54] was 34.9 µM and the TGI [55] was 12.3 µM. It also gave a TGI [15] of 30.2 µM, a TGI [56] of 34.3 µM and a TGI [57] of 24.6 µM. For the same compound, the TGI [17] was 28.8 µM, the TGI [58] was 25.6 µM and the TGI [59] was 7.16 µM. The TGI [60] was 6.78 µM, the TGI [18] was 27.3 µM and the TGI [61] was 25.4 µM.

For `c1ccc(CN2CCN3CCN(CC2)CCN(Cc2ccccc2)CC3)cc1`, the TGI [1] was 18.2 µM, the TGI [19] was 27.5 µM and the TGI [20] was over 56.1 µM. For the same compound, the TGI [21] was 65.6 µM, the TGI [2] was 17.6 µM and the TGI [3] was over 88.3 µM. For the same compound, the TGI [22] was 26.1 µM, the TGI [4] was 5.06 µM and the TGI [62] was 29.6 µM. It also gave a TGI [5] of 32.6 µM, a TGI [6] of 23.3 µM and a TGI [26] of 16.4 µM. For the same compound, the TGI [27] was over 88.8 µM, the TGI [28] was 8.32 µM and the TGI [29] was 32.5 µM. The TGI [30] was 21.9 µM, the TGI [8] was 35.5 µM and the TGI [9] was 17.2 µM. It also gave a TGI [31] of 22.1 µM, a TGI [32] of 25.6 µM and a TGI [33] of 14.6 µM. The TGI [34] was 25.7 µM, the TGI [36] was 19.6 µM and the TGI [38] was 8.01 µM. It also gave a TGI [63] of 18.8 µM, a TGI [64] of 18.4 µM and a TGI [65] of 12.6 µM. The TGI [66] was 12.2 µM, the TGI [39] was over 56.7 µM and the TGI [40] was 19.1 µM. The TGI [41] was 21.8 µM, the TGI [42] was 19.3 µM and the TGI [43] was 16 µM. The TGI [67] was over 100 µM, the TGI [44] was 24.5 µM and the TGI [11] was 20.3 µM. It also gave a TGI [12] of 28.6 µM, a TGI [45] of 23.3 µM and a TGI [68] of 18.5 µM. It also gave a TGI [46] of 9.83 µM, a TGI [47] of 21.3 µM and a TGI [48] of 24.7 µM. It also gave a TGI [49] of over 55.2 µM, a TGI [50] of 21.6 µM and a TGI [51] of 8.06 µM. The TGI [13] was 18.4 µM, the TGI [52] was 4.96 µM and the TGI [14] was 40 µM. It also gave a TGI [53] of 16.9 µM, a TGI [54] of 18.7 µM and a TGI [55] of 18.2 µM. The TGI [56] was 16.5 µM, the TGI [57] was 63.3 µM and the TGI [16] was 35.8 µM. For the same compound, the TGI [17] was 23.5 µM, the TGI [58] was 15.8 µM and the TGI [59] was 8.8 µM. It also gave a TGI [60] of 14.9 µM and a TGI [18] of over 81.5 µM.

With `Cc1cn(S(=O)(=O)c2ccccc2)c2c(OCc3ccccc3)cc(NS(C)(=O)=O)cc12` the TGI [1] was over 100 µM, the TGI [19] was 50.3 µM and the TGI [20] was over 100 µM. The TGI [21] was over 100 µM, the TGI [2] was over 100 µM and the TGI [3] was over 100 µM. For the same compound, the TGI [22] was over 100 µM, the TGI [4] was 77.2 µM and the TGI [62] was over 100 µM. It also gave a TGI [5] of over 44.6 µM, a TGI [6] of over 100 µM and a TGI [26] of over 100 µM. It also gave a TGI [27] of over 100 µM, a TGI [28] of over 20.6 µM and a TGI [29] of over 100 µM. It also gave a TGI [30] of over 89.8 µM, a TGI [8] of over 100 µM and a TGI [9] of 17.2 µM. It also gave a TGI [31] of over 100 µM, a TGI [32] of over 100 µM and a TGI [33] of over 100 µM. The TGI [34] was over 100 µM, the TGI [36] was over 100 µM and the TGI [38] was 43.7 µM. The TGI [63] was 27.3 µM, the TGI [64] was 32.8 µM and the TGI [65] was over 100 µM. The TGI [66] was over 100 µM, the TGI [39] was over 24.8 µM and the TGI [40] was over 94.4 µM. It also gave a TGI [41] of over 100 µM, a TGI [42] of over 100 µM and a TGI [43] of over 75.9 µM. The TGI [67] was over 100 µM, the TGI [44] was over 75.7 µM and the TGI [11] was over 100 µM. For the same compound, the TGI [12] was over 100 µM, the TGI [45] was over 100 µM and the TGI [68] was 29 µM. It also gave a TGI [46] of over 63.7 µM, a TGI [47] of over 100 µM and a TGI [48] of over 77.9 µM. For the same compound, the TGI [49] was over 100 µM, the TGI [50] was over 100 µM and the TGI [51] was 63.5 µM. The TGI [13] was over 100 µM, the TGI [52] was 16.6 µM and the TGI [14] was over 100 µM. The TGI [53] was over 70.2 µM, the TGI [54] was over 100 µM and the TGI [55] was over 100 µM. It also gave a TGI [56] of over 100 µM, a TGI [57] of over 100 µM and a TGI [16] of 39.4 µM. For the same compound, the TGI [17] was over 100 µM, the TGI [58] was over 65.7 µM and the TGI [59] was over 78 µM. It also gave a TGI [60] of over 89.2 µM and a TGI [18] of over 100 µM.
